Assay results taken from PubChem BioAssay AID602167 (The Scripps Research Institute Molecular Screening Center, 2012).
pIC50: −log10 of the molar value. Calls of active or inactive are those of the source. How the calls were made is not given here.

What follows are compounds tested against transactivating tegument protein VP16 (Human herpesvirus 1), as a GAL4-VP16 activation-domain luciferase reporter (assay: GAL4-VP16 reporter repression curves – cell-based, luminescence, high throughput, SRC3 series, counter-screen for SRC3 inhibitor project, dose response (AID 602167)). Conditions: VP16 transactivation luciferase reporter cells.

**Q.** Which IC50 does the source give for `O=C(CCCc1nc(-c2ccccc2Cl)no1)NC1CCCC1` here?
**A.** inactive

**Q.** `CCCC(=O)NC(c1ccc(Cl)cc1)c1ccc2cccnc2c1O` (configuration not stated) was tested. Which pIC50 did it give?
**A.** 5.36

**Q.** `Cc1cc(C(=O)COC(=O)C2=COCCO2)c(C)n1-c1ccccc1` was tested. Which IC50 did it give?
**A.** > 12 µM (inactive)

**Q.** Which IC50 does the source give for `Cc1ccc(C(=O)O/N=C(\N)c2ccccn2)c(Cl)c1` here?
**A.** inactive

**Q.** `Nc1ncnc(NCc2ccccc2)c1[N+](=O)[O-]` was tested. Which IC50 did it give?
**A.** inactive

**Q.** How did the pIC50 turn out when `COc1cc2oc(=O)cc(-c3ccc(-c4ccc(CO)cc4)cc3)c2c(OC)c1OC` was run?
**A.** 5.26

**Q.** `CCOc1ccc(Nc2cc(C)nc(-n3nc(C)cc3C)n2)cc1` was tested. Which IC50 did it give?
**A.** inactive
